Data on 26 molecules can be found in US12286401B2, “Small molecules that sensitize HIV-1 infected cells to antibody dependent cellular cytotoxicity” (THE TRUSTEES OF THE UNIVERSITY OF PENNSYLVANIA, priority 2018, dated 2025).

In the experiment the test system is HIV-1JR-FL EnvΔCT expressed at the surface of HOS cells. As to the kind of experiment: Cell-based ELISA (CBE), 17b readout. The settings on record: for Fold over BNM-III-170 - 17b binding (±0.05): MCG analogs 50 μM, BNM-III-170 5 μM, 2G12 and DMSO normalized; for 17b binding in the CBE assay (screening hit and enantiomers): high-throughput screen follow-up, sCD4 as control, result in words. As for the experimental part:
Detection of trimeric HIV-1 Env at the surface of HOS cells was performed by cell-based ELISA, as described in Desormeaux, “The highly conserved layer-3 component of the HIV-1 gp120 inner domain is critical for CD4-required conformational transitions,” J. Virol. 87:2549-2562; Alsahafi, “Effects of the I559P gp41 change on the conformation and function of the human immunodeficiency virus (HIV-1) membrane envelope glycoprotein trimer,” 2015, PLoS One 10:e0122111; and Veillette, “Conformational evaluation of HIV-1 trimeric envelope glycoproteins using a cell-based ELISA assay,” 2014, J. Vis. Exp., 91:51995. To enhance cell-surface expression of HIV-1 EnvRF a stop codon was introduced to replace the codon for Gly 711, truncating the cytoplasmic tail (ACT). Briefly, HOS cells were seeded in T-75 flasks (3×10^6 cells per flask) and transfected the next day with 22.5 μg of Env-expressing plasmids (wild-type and mutants S375W, S375T, H66A, A582T/L587A, etc) using the standard polyethylenimine (PEI, Polyscience Inc, PA, USA) transfection method. Twenty-four hours after transfection, cells were plated in 384-wells plates (2×10^4 cells per well). One day later, cells were washed twice with blocking buffer (10 mg/mL non-fat dry milk, 1.8 mM CaCl2), 1 mM MgCl2, 25 mM Tris, pH 7.5 and 140 mM NaCl) and then incubated for 30 minutes at room temperature with different concentrations of MCG analogs or equivalent volume of vehicle (DMSO). Cells were then incubated for an additional 1 h at room temperature with anti-HIV-1 Env monoclonal antibodies recognizing CD4-induced gp120 epitopes (17b, A32), CD4-binding site gp120 epitopes (VRC03, VRC01, F105, and b12), gp120 V3 glycans (19b, PGT126, PGT122, and 10.1074), gp120 outer domain (2G12), and gp120-gp41 interface (PGT151 and VRC34) epitopes. All ligands were diluted in blocking buffer. A horseradish peroxidase-conjugated antibody specific for the Fc region of human or mouse IgG (Pierce) was then incubated with the samples for 45 minutes at room temperature. For all conditions, cells were washed 5 times with blocking buffer and 5 times with washing buffer (1.8 mM CaCl2), 1 mM MgCl2, 25 mM Tris, pH 7.5 and 140 mM NaCl). HRP enzyme activity was determined after the addition of 20 μl per well of a 1:1 mix of Western Lightning oxidizing and luminol reagents (Perkin Elmer Life Sciences). Light emission was measured with an LB 941 TriStar luminometer (Berthold Technologies) and analysis with Graph Pad software.
The data of Table 2 is given as the fold over BNM-III-170 (5 μM) of Cell-Based ELISA with MCG Analogs (50 μM)—17b readout, 2G12 and DMSO normalized.
To identify molecules able to expose vulnerable Env epitopes, a cell-based ELISA (CBE) assay was adapted, capable of measuring conformational changes of membrane-bound trimeric Env as described in Veillette, 2014, J. Vis. Exp. doi:10.3791/51995:51995; Haim, 2011, PLoS Pathog 7:e1002101, into a high-throughput screening (HTS) platform (FIG. 10A). Briefly, the cytoplasmic-tail deleted HIV-1JR-FL Tier-2/3 Env was expressed on the surface of HOS cells in a 384-well-plate format. The cytoplasmic tail of Env was deleted to enhance Env expression at the cell surface and therefore enhance the sensitivity of the CBE assay. See, Veilette and Haim, 2009, PLoS Pathog 5:e100036. Small molecules or, as a positive control, soluble (sCD4) were added to expose the HIV-1JR-FL EnvΔCT epitope that can be recognized by the CD4i antibody 17b. See, Wyatt, 1995, J. Virol. 69:5723-5733; Rizzuto, 1998, Science 280:1949-1953.
17b binding was detected by a horseradish peroxidase-conjugated (HRP) second antibody, and HRP enzyme activity was measured by Western Lightning oxidizing and luminal reagents. 17b binding in the presence of sCD4 was set as the control (FIG. 10B, blue dots), small molecules that enhanced 17b binding above 25% of the one induced by sCD4 were retested in quadruplicate and only one molecule (UM0059920) was deemed a true positive (FIG. 10B, red dots). […]
Background: ELISA stands for enzyme-linked immunosorbent assay.

Values joined by “and” are separate entries in the source; they are usually repeats but may differ in a detail not shown here. Equal values may be shown once. “Also recorded” adds a separate entry of the source.

Consider `CCS(=O)(=O)N1CCC[C@H](C(=O)Nc2ccc(C(F)(F)F)c(F)c2)C1` [(S)-MCG-IV-024-B02], for which the “Fold over BNM-III-170 - 17b binding (±0.05)” value (from here on “Fold”) was determined as 0.36 fold.

As to `NCCOC(=O)N1CCC[C@H](C(=O)Nc2ccc(Cl)c(F)c2)C1` [(S)-MCG-IV-267], the “Fold” value turned out to be 0.30 fold.

For `CNC(=O)N1CCC[C@H](C(=O)Nc2ccc(C(F)(F)F)c(F)c2)C1` [(S)-MCG-IV-063-A01], the “Fold” value stood at 0.33 fold.

Take `CCCNC(=N)N1CCC[C@H](C(=O)Nc2ccc(Cl)c(F)c2)C1` [(S)-MCG-IV-053-A05]: the “Fold” value is on record as 0.85 fold.

As for `CS(=O)(=O)N1CCC[C@@H](C(=O)Nc2ccc(Cl)cc2)C1` [(R)-MCG-II-156], the “Fold” value was determined as 0.08 fold; the “17b binding in the CBE assay (screening hit and enantiomers)” value is on record as “not”.

Consider `CS(=O)(=O)N1CCC[C@H](C(=O)Nc2ccc(C(F)(F)F)c(F)c2)C1` [(S)-MCG-IV-024-A02], for which the “Fold” value came to 0.38 fold.

`CC(C)CNC(=O)N1CCC[C@H](C(=O)Nc2ccc(Cl)c(F)c2)C1` [(S)-MCG-IV-031-A06]: the “Fold” value is recorded as 0.42 fold.

On to `CCCNC(=O)N1CCC[C@H](C(=O)Nc2ccc(C(F)(F)F)c(F)c2)C1` [(S)-MCG-IV-063-A05], for which the “Fold” value worked out at 0.45 fold.

For the molecule `CN(C)C(=O)N1CCC[C@H](C(=O)Nc2ccc(Cl)c(F)c2)C1` [(S)-MCG-IV-031-A03], the “Fold” value was 0.71 fold.

Turning to `CC(C)CNC(=N)N1CCC[C@H](C(=O)Nc2ccc(Cl)c(F)c2)C1` [(S)-MCG-IV-053-A06], the “Fold” value was 0.60 fold.

`CC(C)CNC(=O)N1CCC[C@H](C(=O)Nc2ccc(C(F)(F)F)c(F)c2)C1` [(S)-MCG-IV-063-A06]: the “Fold” value was determined as 0.36 fold.

`CCOC(=O)N1CCC[C@H](C(=O)Nc2ccc(C(F)(F)F)c(F)c2)C1` [(S)-MCG-IV-050-A02]: the “Fold” value is 0.49 fold.

As for `CN(C)C(=O)N1CCC[C@H](C(=O)Nc2ccc(C(F)(F)F)c(F)c2)C1` [(S)-MCG-IV-063-A03], the “Fold” value was found to be 0.48 fold.

Consider `CCCOC(=O)N1CCC[C@H](C(=O)Nc2ccc(Cl)c(F)c2)C1` [(S)-MCG-IV-058], for which the “Fold” value is recorded as 0.51 fold.

`CC(C)COC(=O)N1CCC[C@H](C(=O)Nc2ccc(Cl)c(F)c2)C1` [(S)-MCG-IV-061]: the “Fold” value was found to be 0.62 fold.

For `CS(=O)(=O)N1CCC[C@H](C(=O)Nc2ccc(Cl)cc2)C1` [(S)-MCG-II-153], the “Fold” value was 0.20 fold and 0.31 fold; the “17b binding in the CBE assay (screening hit and enantiomers)” value is “enhanced 17b binding to similar levels as UM0059920; also recorded: active enantiomer”.

As to `NCCCNC(=O)N1CCC[C@H](C(=O)Nc2ccc(Cl)c(F)c2)C1` [(S)-MCG-IV-211], the “Fold” value is given as 0.25 fold.

Consider `CNC(=N)N1CCC[C@H](C(=O)Nc2ccc(Cl)c(F)c2)C1` [(S)-MCG-IV-053-A01], for which the “Fold” value is given as 0.42 fold.

As for `NCCOC(=O)N1C[C@H](N)C[C@H](C(=O)Nc2ccc(Cl)c(F)c2)C1` [(3R,5S)-MCG-IV-272], the “Fold” value is on record as 0.07 fold.

In the case of `NCCNC(=O)N1C[C@H](N)C[C@H](C(=O)Nc2ccc(Cl)c(F)c2)C1` [(3R,5S)-MCG-IV-273], the “Fold” value stood at 0.06 fold.

Consider `NCCCNC(=O)N1C[C@H](N)C[C@H](C(=O)Nc2ccc(Cl)c(F)c2)C1` [(3R,5S)-MCG-IV-274], for which the “Fold” value is recorded as 0.06 fold.

Turning to `CCN(C)C(=O)N1CCC[C@H](C(=O)Nc2ccc(Cl)c(F)c2)C1` [(S)-MCG-IV-031-A04], the “Fold” value worked out at 0.54 fold.

`CCCNC(=O)N1C[C@H](N)C[C@H](C(=O)Nc2ccc(Cl)c(F)c2)C1` [(3R,5S)-MCG-IV-226]: the “Fold” value is 0.11 fold.

Take `CCNC(=O)N1CCC[C@H](C(=O)Nc2ccc(C(F)(F)F)c(F)c2)C1` [(S)-MCG-IV-063-A02]: the “Fold” value was found to be 0.35 fold.

With `CCNC(=O)N1CCC[C@H](C(=O)Nc2ccc(Cl)c(F)c2)C1` [(S)-MCG-IV-031-A02], the “Fold” value was found to be 0.37 fold.

On to `COC(=O)N1CCC[C@H](C(=O)Nc2ccc(C(F)(F)F)c(F)c2)C1` [(S)-MCG-IV-050-A01], for which the “Fold” value is given as 0.44 fold.
